Measurements as given in PubChem BioAssay AID330 (DTP/NCI, 2004).
Several values for one entry are separate records, joined by “and”; a condition that tells them apart may be missing. Identical values can stand only once. Inconclusive results and toxic doses are left out. The calls were made as follows: active = survival T/C of 150% or more; inactive = T/C below 125% in these data.

System: P388 leukemia ip, CD2F1 mice, survival T/C
Assay: NCI In Vivo Anticancer Drug Screen. Data for tumor model P388 Leukemia (intraperitoneal) in CD2F1 (CDF1) mice
Details: endpoint: median survival time, higher = longer survival
Procedure, shortened: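 Mice carrying the transplanted tumor received test compound or vehicle. Survival was recorded in each group, and the value is the treated-group measurement divided by that of the vehicle-treated control group.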

[1] = dose: 50.0 mg/kg/injection, schedule: Q01DX009 (ip), vehicle: saline with Tween-80
[2] = dose: 100.0 mg/kg/injection, schedule: Q01DX009 (ip), vehicle: saline with Tween-80
[3] = dose: 200.0 mg/kg/injection, schedule: Q01DX009 (ip), vehicle: saline with Tween-80
[4] = dose: 400.0 mg/kg/injection, schedule: Q01DX009 (ip), vehicle: saline with Tween-80
[5] = dose: 50.0 mg/kg/injection, schedule: Q01DX005 (ip), vehicle: Klucel (hydroxypropylcellulose) (HPC)
[6] = dose: 100.0 mg/kg/injection, schedule: Q01DX005 (ip), vehicle: Klucel (hydroxypropylcellulose) (HPC)
[7] = dose: 200.0 mg/kg/injection, schedule: Q01DX005 (ip), vehicle: Klucel (hydroxypropylcellulose) (HPC)
[8] = dose: 100.0 mg/kg/injection, schedule: Q04DX003 (ip), vehicle: saline
[9] = dose: 200.0 mg/kg/injection, schedule: Q04DX003 (ip), vehicle: saline
[10] = dose: 50.0 mg/kg/injection, schedule: Q01DX005 (ip), vehicle: saline with Tween-80
[11] = dose: 100.0 mg/kg/injection, schedule: Q01DX005 (ip), vehicle: saline with Tween-80
[12] = dose: 12.5 mg/kg/injection, schedule: Q01DX009 (ip), vehicle: saline

Measured: T/C

C=CCCC(=O)CCCC(=O)O[C@@H]1[C@@H]2[C@H](CC1(C)C)[C@H](O)[C@@]13O[C@@H]1[C@H](O)[C@@]1(CO1)[C@@]23C
inactive: dose: 6.2 micrograms/kg/injection, schedule: Q01DX009 (ip), vehicle: saline + alcohol 98 % of control | dose: 6.3 micrograms/kg/injection, schedule: Q01DX009 (ip), vehicle: Klucel (hydroxypropylcellulose) (HPC) 110 % of control | dose: 12.5 micrograms/kg/injection, schedule: Q01DX009 (ip), vehicle: Klucel (hydroxypropylcellulose) (HPC) 110 % of control | dose: 12.5 micrograms/kg/injection, schedule: Q01DX009 (ip), vehicle: saline + alcohol 101 % of control | dose: 25.0 micrograms/kg/injection, schedule: Q01DX005 (ip), vehicle: Klucel (hydroxypropylcellulose) (HPC) 100 % of control | dose: 25.0 micrograms/kg/injection, schedule: Q01DX009 (ip), vehicle: Klucel (hydroxypropylcellulose) (HPC) 100 % of control | dose: 25.0 micrograms/kg/injection, schedule: Q01DX009 (ip), vehicle: saline + alcohol 98 % of control | dose: 50.0 micrograms/kg/injection, schedule: Q01DX005 (ip), vehicle: Klucel (hydroxypropylcellulose) (HPC) 101 % of control | dose: 50.0 micrograms/kg/injection, schedule: Q01DX009 (ip), vehicle: Klucel (hydroxypropylcellulose) (HPC) 98 % of control | dose: 50.0 micrograms/kg/injection, schedule: Q01DX009 (ip), vehicle: saline + alcohol 97 % of control | dose: 100.0 micrograms/kg/injection, schedule: Q01DX005 (ip), vehicle: Klucel (hydroxypropylcellulose) (HPC) 99 % of control | dose: 200.0 micrograms/kg/injection, schedule: Q01DX005 (ip), vehicle: Klucel (hydroxypropylcellulose) (HPC) 100 % of control | dose: 400.0 micrograms/kg/injection, schedule: Q01DX005 (ip), vehicle: Klucel (hydroxypropylcellulose) (HPC) 111 % of control

C/C=C/C=C/C(=O)c1ccc(OC)cc1O
inactive: [1] 103 % of control and 105 % of control | [2] 101 % of control and 103 % of control | [3] 101 % of control and 106 % of control | [4] 106 % of control and 108 % of control

CC(C)CC1N=C(NN=C2CCCCC2)SP1(=O)NNc1ncccn1 (centres undefined)
inactive: dose: 60.0 mg/kg/injection, schedule: Q01DX005 (ip), vehicle: Klucel (hydroxypropylcellulose) (HPC) 94 % of control | dose: 120.0 mg/kg/injection, schedule: Q01DX005 (ip), vehicle: Klucel (hydroxypropylcellulose) (HPC) 97 % of control

COc1ccc2sc3c(C)ccc(NCCN(C)C)c3c(=O)c2c1
inactive: [1] 115 % of control

COc1ccc2cc1Oc1ccc(cc1)C[C@H]1c3c(cc(OC)c(O)c3Oc3cc4c(cc3OC)CCN(C)[C@@H]4C2)CCN1C
inactive: dose: 25.0 mg/kg/injection, schedule: Q01DX001 (ip), vehicle: saline 101 % of control | dose: 50.0 mg/kg/injection, schedule: Q01DX001 (ip), vehicle: saline 106 % of control | dose: 100.0 mg/kg/injection, schedule: Q01DX001 (ip), vehicle: saline 106 % of control | dose: 200.0 mg/kg/injection, schedule: Q01DX001 (ip), vehicle: saline 100 % of control

O=C(NC1CCCCC1)Oc1ccccc1-c1ccccc1
inactive: dose: 100.0 mg/kg/injection, schedule: Q01DX001 (ip), vehicle: saline with Tween-80 100 % of control | dose: 200.0 mg/kg/injection, schedule: Q01DX001 (ip), vehicle: saline with Tween-80 100 % of control | dose: 400.0 mg/kg/injection, schedule: Q01DX001 (ip), vehicle: saline with Tween-80 100 % of control

CCOC(=O)C[P+](c1ccccc1)(c1ccccc1)c1ccccc1
inactive: dose: 3.3 mg/kg/injection, schedule: Q01DX009 (ip), vehicle: saline sonified 95 % of control | dose: 6.25 mg/kg/injection, schedule: Q01DX009 (ip), vehicle: saline sonified 90 % of control | dose: 12.5 mg/kg/injection, schedule: Q01DX009 (ip), vehicle: saline sonified 100 % of control | dose: 25.0 mg/kg/injection, schedule: Q01DX009 (ip), vehicle: saline sonified 100 % of control

CC(C)[c-]1[c-][c-][c-][c-]1.CC(C)[c-]1[c-][c-][c-][c-]1.[Cl][Zr][Cl]
inactive: dose: 3.12 mg/kg/injection, schedule: Q01DX009 (ip), vehicle: saline with Tween-80 112 % of control | dose: 6.25 mg/kg/injection, schedule: Q01DX009 (ip), vehicle: saline with Tween-80 119 % of control | dose: 12.5 mg/kg/injection, schedule: Q01DX009 (ip), vehicle: saline with Tween-80 117 % of control

COc1ccccc1N=NC(C#N)C(N)=O (centres undefined)
inactive: dose: 25.0 mg/kg/injection, schedule: Q01DX009 (ip), vehicle: saline with Tween-80 102 % of control | [1] 101 % of control

CCCn1c(C)nc2ncn(-c3ccccc3)c2c1=O
inactive: [5] 101 % of control | [6] 102 % of control | [7] 101 % of control

O=C1c2ccccc2C(=O)N1CS(=O)(=O)CN1C(=O)c2ccccc2C1=O
inactive: [8] 97 % of control | [9] 93 % of control | dose: 400.0 mg/kg/injection, schedule: Q04DX003 (ip), vehicle: saline 97 % of control

O=S(=O)(O)c1ccc(Cl)c(N=N/C=N/Nc2cc(S(=O)(=O)O)ccc2Cl)c1
inactive: [5] 100 % of control | [6] 98 % of control | [7] 100 % of control

CCOC(=O)C1=C(O)C[C@]2(O)C3CC=C(C)[C@@H]4CCO[C@](OC)(C[C@H]2C1)[C@]34C(=O)OC (some centres undefined)
inactive: [10] 100 % of control | [11] 96 % of control

CCOC(O)C(F)(F)F (centres undefined)
inactive: [12] 105 % of control | dose: 25.0 mg/kg/injection, schedule: Q01DX009 (ip), vehicle: saline 105 % of control | dose: 50.0 mg/kg/injection, schedule: Q01DX009 (ip), vehicle: saline 100 % of control | [8] 100 % of control | [9] 109 % of control

CCCCCCN(CCCCCC)P(=O)(N1CC1)N1CC1
inactive: [12] 118 % of control | dose: 25.0 mg/kg/injection, schedule: Q04DX003 (ip), vehicle: saline with Tween-80 113 % of control | dose: 100.0 mg/kg/injection, schedule: Q04DX003 (ip), vehicle: saline with Tween-80 100 % of control

CC1=C2C(O)C(=O)OC3CC4C(C)(C)C(=O)CCC4(C)C(CC1)C23C (centres undefined)
inactive: dose: 0.1 mg/kg/injection, schedule: Q01DX009 (ip), vehicle: Klucel (hydroxypropylcellulose) (HPC) 97 % of control | dose: 0.21 mg/kg/injection, schedule: Q01DX009 (ip), vehicle: Klucel (hydroxypropylcellulose) (HPC) 98 % of control | dose: 0.43 mg/kg/injection, schedule: Q01DX009 (ip), vehicle: Klucel (hydroxypropylcellulose) (HPC) 100 % of control | dose: 0.87 mg/kg/injection, schedule: Q01DX009 (ip), vehicle: Klucel (hydroxypropylcellulose) (HPC) 102 % of control | dose: 1.75 mg/kg/injection, schedule: Q01DX009 (ip), vehicle: Klucel (hydroxypropylcellulose) (HPC) 98 % of control

CC(C)(C)C(=O)Nc1ccc2c(c1)C(=O)c1ccccc1C2=O
inactive: [10] 100 % of control | [11] 87 % of control | dose: 200.0 mg/kg/injection, schedule: Q01DX005 (ip), vehicle: saline with Tween-80 89 % of control

O=S(=O)(NCCSSCCNS(=O)(=O)c1cccs1)c1cccs1
inactive: dose: 50.0 mg/kg/injection, schedule: Q01DX009 (ip), vehicle: Klucel (hydroxypropylcellulose) (HPC) 88 % of control | dose: 100.0 mg/kg/injection, schedule: Q01DX009 (ip), vehicle: Klucel (hydroxypropylcellulose) (HPC) 92 % of control | dose: 200.0 mg/kg/injection, schedule: Q01DX009 (ip), vehicle: Klucel (hydroxypropylcellulose) (HPC) 100 % of control

COc1ccc(C2C3CCCC(C3O)C(c3ccc(OC)cc3)N2C)cc1 (centres undefined)
inactive: dose: 100.0 mg/kg/injection, schedule: Q04DX003 (ip), vehicle: suspension in saline 103 % of control | dose: 200.0 mg/kg/injection, schedule: Q04DX003 (ip), vehicle: suspension in saline 104 % of control | dose: 400.0 mg/kg/injection, schedule: Q04DX003 (ip), vehicle: suspension in saline 100 % of control

Oc1c(CN2CCOCC2)cc(CN2CCOCC2)cc1CN1CCOCC1
inactive: [1] 94 % of control | [2] 103 % of control | [3] 100 % of control | [4] 100 % of control

Cc1ccc(S(=O)(=O)C(Br)CC(=O)c2ccccc2)cc1 (centres undefined)
inactive: dose: 100.0 mg/kg/injection, schedule: Q04DX002 (ip), vehicle: saline 100 % of control | dose: 200.0 mg/kg/injection, schedule: Q04DX002 (ip), vehicle: saline 101 % of control | dose: 400.0 mg/kg/injection, schedule: Q04DX002 (ip), vehicle: saline 109 % of control

Clc1ccc(CCNCc2ccc(Cl)cc2)cc1
inactive: dose: 12.5 mg/kg/injection, schedule: Q01DX005 (ip), vehicle: saline with Tween-80 87 % of control | dose: 25.0 mg/kg/injection, schedule: Q01DX005 (ip), vehicle: saline with Tween-80 97 % of control | [10] 106 % of control and 97 % of control
